Measured values from patent US20090093469A1, “Phenylaminopropanol Derivatives and Methods of Their Use” (WYETH, priority 2004, published 2009).
Counter-ions that a name gives are not always drawn.

Target: T1, hNET (Homo sapiens, UniProt P23975)
T1 construct: expressed in transfected cells
Test: Norepinephrine (NE) uptake assay in MDCK-Net6 cells stably transfected with human hNET
Assay type: cell-based
Details: MDCK-Net6, read-out: % Inhibition @ 1 μM (hNET)

T1 sequence (P23975 whole entry): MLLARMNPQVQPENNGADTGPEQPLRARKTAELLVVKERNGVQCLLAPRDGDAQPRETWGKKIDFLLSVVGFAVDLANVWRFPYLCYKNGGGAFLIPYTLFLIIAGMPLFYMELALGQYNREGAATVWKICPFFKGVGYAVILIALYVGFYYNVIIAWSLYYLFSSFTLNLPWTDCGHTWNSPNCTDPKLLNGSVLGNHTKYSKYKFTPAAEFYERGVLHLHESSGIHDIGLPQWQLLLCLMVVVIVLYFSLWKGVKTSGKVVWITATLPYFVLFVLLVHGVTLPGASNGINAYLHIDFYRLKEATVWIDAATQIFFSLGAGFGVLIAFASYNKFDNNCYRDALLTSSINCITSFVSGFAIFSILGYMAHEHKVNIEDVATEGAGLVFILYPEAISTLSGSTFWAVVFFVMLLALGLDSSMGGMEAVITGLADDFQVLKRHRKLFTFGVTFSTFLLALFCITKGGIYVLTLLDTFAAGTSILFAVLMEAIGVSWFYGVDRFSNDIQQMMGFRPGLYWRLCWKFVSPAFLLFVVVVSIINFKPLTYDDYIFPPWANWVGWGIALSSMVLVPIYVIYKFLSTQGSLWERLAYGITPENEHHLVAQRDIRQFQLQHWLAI

| Structure (SMILES) | inhibition at 1 µM [%] |
| --- | --- |
| CNC[C@@H](O)[C@H](c1cccc(F)c1)n1ccc2c(Br)cccc21 [Example 125, (1S,2R)-1-(4-bromo-1H-indol-1-yl)-1-(3-fluorophenyl)-3-(methylamino)propan-2-ol hydrochloride] | 94.3 |
| CNC[C@@H](O)[C@H](c1cccc(F)c1)n1ccc2cc(Br)ccc21 [Example 127, (1S,2R)-1-(5-bromo-1H-indol-1-yl)-1-(3-fluorophenyl)-3-(methylamino)propan-2-ol hydrochloride] | 95.7 |
| CNC[C@@H](O)[C@H](c1cccc(F)c1)n1ccc2ccc(Br)cc21 [Example 132, (1S,2R)-1-(6-bromo-1H-indol-1-yl)-1-(3-fluorophenyl)-3-(methylamino)propan-2-ol hydrochloride] | 93 |
| CNC[C@@H](O)[C@H](c1cccc(F)c1)n1ccc2ccc(F)cc21 [Example 133, (1S,2R)-1-(6-fluoro-1H-indol-1-yl)-1-(3-fluorophenyl)-3-(methylamino)propan-2-ol hydrochloride] | 96.4 |
| CNC[C@@H](O)[C@H](c1cccc(F)c1)n1ccc2cccc(Br)c21 [Example 135, (1S,2R)-1-(7-bromo-1H-indol-1-yl)-1-(3-fluorophenyl)-3-(methylamino)propan-2-ol hydrochloride] | 99.5 |
| CNC[C@@H](O)[C@H](c1cccc(C(F)(F)F)c1)n1ccc2ccccc21 [Example 136, (1S,2R)-1-(1H-indol-1-yl)-3-(methylamino)-1-[3-(trifluoromethyl)phenyl]propan-2-ol hydrochloride] | 97 |
| CNC[C@H](O)[C@H](c1cccc(F)c1)n1ccc2ccccc21 [Example 139, (1S,2S)-1-(3-fluorophenyl)-1-(1H-indol-1-yl)-3-(methylamino)propan-2-ol hydrochloride] | 94.9 |
| CNC[C@@H](O)[C@H](c1cccc(F)c1)n1cc(C)c2ccccc21 [Example 143, (1S,2R)-1-(3-fluorophenyl)-3-(methylamino)-1-(3-methyl-1H-indol-1-yl)propan-2-ol hydrochloride] | 96.8 |
| CNC[C@@H](O)[C@H](c1cccc(F)c1)n1ccc2cccc(Cl)c21 [Example 149, (1S,2R)-1-(7-chloro-1H-indol-1-yl)-1-(3-fluorophenyl)-3-(methylamino)propan-2-ol hydrochloride] | 100 |
| CNC[C@@H](O)[C@H](c1cccc(F)c1)n1ccc2c(Cl)cccc21 [Example 150, (1S,2R)-1-(4-chloro-1H-indol-1-yl)-1-(3-fluorophenyl)-3-(methylamino)propan-2-ol hydrochloride] | 98.3 |
| CNC[C@@H](O)[C@H](c1cccc(F)c1)n1ccc2ccc(Cl)cc21 [Example 151, (1S,2R)-1-(6-chloro-1H-indol-1-yl)-1-(3-fluorophenyl)-3-(methylamino)propan-2-ol hydrochloride] | 94.3 |
| CNC[C@@H](O)[C@H](c1ccccc1)n1ccc2cc(Cl)ccc21 [Example 152, (1S,2R)-1-(5-chloro-1H-indol-1-yl)-3-(methylamino)-1-phenylpropan-2-ol hydrochloride] | 96.2 |

Same assay, conditions: test compound 1 μM; [3H]NE uptake, MDCK-Net6 cells; read-out: % Inhibition @ 1 μM (hNET)

| Structure (SMILES) | inhibition at 1 µM [%] |
| --- | --- |
| CNC[C@@H](O)[C@H](c1ccccc1)N1C(=O)C2(CC2)c2ccccc21 [Example 109, 1′-[(1S,2R)-2-hydroxy-3-(methylamino)-1-phenylpropyl]spiro-[cyclopropane-1,3′-indol]-2′(1′H)-one hydrochloride] | 94.7 |
| CNC[C@@H](O)[C@H](c1ccccc1)N1C(=O)C(C)(C)c2cc(F)ccc21 [Example 110, 5-fluoro-1-[(1S,2R)-2-hydroxy-3-(methylamino)-1-phenylpropyl]-3,3-dimethyl-1,3-dihydro-2H-indol-2-one hydrochloride] | 86.4 |
| CNC[C@@H](O)[C@H](c1ccccc1)N1C(=O)C2(CCCCC2)c2cccc(F)c21 [Example 112, 7′-fluoro-1′-[(1S,2R)-2-hydroxy-3-(methylamino)-1-phenylpropyl]-spiro[cyclohexane-1,3′-indol]-2′(1′H)-one hydrochloride] | 100 |
| CNC[C@@H](O)[C@H](c1ccccc1)N1C(=O)C2(CCCCC2)c2cc(Br)ccc21 [Example 113, 5′-bromo-1′-[(1S,2R)-2-hydroxy-3-(methylamino)-1-phenylpropyl]-spiro[cyclohexane-1,3′-indol]-2′(1′H)-one hydrochloride] | 99.7 |
| CNC[C@@H](O)[C@H](c1cccc(F)c1)n1cc(-c2ccccc2F)c2ccccc21 [Example 114, (1S,2R)-1-(3-fluorophenyl)-1-[3-(2-fluorophenyl)-1H-indol-1-yl]-3-(methylamino)propan-2-ol hydrochloride] | 100 |
| CNC[C@@H](O)[C@H](c1cccc(F)c1)n1cc(-c2ccc(Cl)c(Cl)c2)c2ccccc21 [Example 115, (1S,2R)-1-[3-(3,4-dichlorophenyl)-1H-indol-1-yl]-1-(3-fluorophenyl)-3-(methylamino)propan-2-ol hydrochloride] | 23.9 |
| CNC[C@@H](O)[C@H](c1cccc(F)c1)n1cc(-c2cccc(F)c2)c2ccccc21 [Example 116, (1S,2R)-1-(3-fluorophenyl)-1-[3-(3-fluorophenyl)-1H-indol-1-yl]-3-(methylamino)propan-2-ol hydrochloride] | 97.3 |
| CNC[C@@H](O)[C@H](c1ccccc1)n1cc(C)c2cc(F)ccc21 [Example 117, (1S,2R)-1-(5-fluoro-3-methyl-1H-indol-1-yl)-3-(methylamino)-1-phenylpropan-2-ol hydrochloride] | 95.3 |
| CNC[C@@H](O)[C@H](c1ccccc1)n1cc(C)c2cc(Cl)ccc21 [Example 119, (1S,2R)-1-(5-chloro-3-methyl-1H-indol-1-yl)-3-(methylamino)-1-phenylpropan-2-ol hydrochloride] | 96.3 |
| Cc1cn([C@@H](c2ccccc2)[C@H](O)CN)c2ccc(Cl)cc12 [Example 120, (1S,2R)-3-amino-1-(5-chloro-3-methyl-1H-indol-1-yl)-1-phenylpropan-2-ol hydrochloride] | 68.6 |
| CNC[C@@H](OC)[C@H](c1ccccc1)n1cc(C)c2cc(Cl)ccc21 [Example 121, [(2R,3S)-3-(5-chloro-3-methyl-1H-indol-1-yl)-2-methoxy-3-phenylpropyl]methylamine] | 21.2 |
| CNC[C@@H](O)[C@H](c1ccccc1)n1cc(C)c2cccc(Cl)c21 [Example 122, (1S,2R)-1-(7-chloro-3-methyl-1H-indol-1-yl)-3-(methylamino)-1-phenylpropan-2-ol hydrochloride] | 97.4 |
| CNC[C@@H](OC)[C@H](c1ccccc1)n1cc(C)c2cc(F)ccc21 [Example 123, [(2R,3S)-3-(5-fluoro-3-methyl-1H-indol-1-yl)-2-methoxy-3-phenylpropyl]methylamine hydrochloride] | 65 |
| CNC[C@@H](O)[C@H](c1ccccc1)n1ccc2c(Br)cccc21 [Example 124, (1S,2R)-1-(4-bromo-1H-indol-1-yl)-3-(methylamino)-1-phenylpropan-2-ol hydrochloride] | 91.5 |
| CNC[C@@H](O)[C@H](c1ccccc1)n1ccc2cc(Br)ccc21 [Example 126, (1S,2R)-1-(5-bromo-1H-indol-1-yl)-3-(methylamino)-1-phenylpropan-2-ol hydrochloride] | 92.9 |
| CNC[C@@H](O)[C@H](c1ccccc1)n1ccc2c(C#N)cccc21 [Example 128, 1-[(1S,2R)-2-hydroxy-3-(methylamino)-1-phenylpropyl]-1H-indole-4-carbonitrile hydrochloride] | 45.6 |
| CNC[C@@H](O)[C@H](c1ccccc1)n1ccc2ccc(Br)cc21 [Example 129, (1S,2R)-1-(6-bromo-1H-indol-1-yl)-3-(methylamino)-1-phenylpropan-2-ol hydrochloride] | 71.8 |
| CNC[C@@H](O)[C@H](c1ccccc1)n1ccc2cc(C#N)ccc21 [Example 130, 1-[(1S,2R)-2-hydroxy-3-(methylamino)-1-phenylpropyl]-1H-indole-5-carbonitrile hydrochloride] | 76 |
| CNC[C@@H](O)[C@H](c1cccc(F)c1)n1ccc2c(C#N)cccc21 [Example 131, 1-[(1S,2R)-1-(3-fluorophenyl)-2-hydroxy-3-(methylamino)propyl]-1H-indole-4-carbonitrile hydrochloride] | 63.1 |
| NC[C@@H](O)[C@H](c1cccc(F)c1)n1ccc2ccccc21 [Example 134, (1S,2R)-3-amino-1-(3-fluorophenyl)-1-(1H-indol-1-yl)propan-2-ol hydrochloride] | 68.5 |
| CNC[C@@H](O)[C@H](c1cccc(C(F)(F)F)c1)N1CCc2ccccc21 [Example 138, (1S,2R)-1-(2,3-dihydro-1H-indol-1-yl)-3-(methylamino)-1-[3-(trifluoromethyl)phenyl]propan-2-ol hydrochloride] | 97.9 |
| CNC[C@@H](O)[C@H](c1ccc(F)c(F)c1)n1ccc2ccccc21 [Example 140, (1S,2R)-1-(3,4-difluorophenyl)-1-(1H-indol-1-yl)-3-(methylamino)propan-2-ol hydrochloride] | 96.7 |
| CNC[C@@H](O)[C@H](c1ccccc1)n1ccc2c(Cl)cccc21 [Example 146, (1S,2R)-1-(4-chloro-1H-indol-1-yl)-3-(methylamino)-1-phenylpropan-2-ol hydrochloride] | 97.1 |
| CNC[C@@H](O)[C@H](c1ccccc1)n1ccc2ccc(Cl)cc21 [Example 147, (1S,2R)-1-(6-chloro-1H-indol-1-yl)-3-(methylamino)-1-phenylpropan-2-ol hydrochloride] | 91.7 |
| CNC[C@@H](O)[C@H](c1ccccc1)n1ccc2cccc(Cl)c21 [Example 148, (1S,2R)-1-(7-chloro-1H-indol-1-yl)-3-(methylamino)-1-phenylpropan-2-ol hydrochloride] | 97.8 |
